Experimental data taken from publication PMC5214534, “Disaggregation of Amylin Aggregate by Novel Conformationally Restricted Aminobenzoic Acid containing α/β and α/γ Hybrid Peptidomimetics” (Scientific Reports, 2017).
Where a SMILES comes first, the peptide text is derived from it. Where no end group is shown, it is not given here. [ ]: non-standard residue; d: D form. 3Abz = Nc1cccc(C(=O)O)c1; 4Abz = Nc1ccc(C(=O)O)cc1; 2Abz = Nc1ccccc1C(=O)O; Aib = CC(C)(N)C(=O)O

Columns and labels:
[1] = target: T1, preformed fibrils of hIAPP (Homo sapiens, UniProt P10997); test: Time dependent Thioflavin T assay, disruption of preformed fibrils of hIAPP; format: biochemical; conditions: 10-fold molar excess added at 48 h to hIAPP 40 μM preincubated in PBS pH 7.4, 37 °C; total 7 (2 + 5) days; average of 3 replica
T1 construct: 3.1 mg of hIAPP(1-37) was dissolved in 50 μL of HFIP
T1 sequence (P10997 34-70): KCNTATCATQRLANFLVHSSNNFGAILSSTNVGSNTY
Procedure: We already observed that the BSBHps (3, 4, 7, and 8) were efficient inhibitors. Further, we investigated the ability of those molecules to disrupt preformed fibrils of hIAPP in vitro. From the ThT assay (black, Fig. 2a), we observed that hIAPP fibrillzation was maximum at ~45–50 h. Therefore, we designed an experiment where the BSBHps were added into the preformed fibrillar assembly at 48 h (2 days). The hIAPP was incubated alone in PBS pH 7.4 at 37 °C for 48 h (2 days) and then varied molar excess (2-, 5-, and 10-fold) of designed peptidomimetics were added to it and fibril disruption was monitored by various biophysical tools.
(§1) 3.1 mg of hIAPP(1-37) was dissolved in 50 μL of HFIP to obtain disaggregated hIAPP and HFIP was evaporated using nitrogen gas[43]. This process was repeated twice. Then, 5 mL of Milli Q water was added to the disaggregated material and divided the whole solution into 25 equal portions with 200 μL each. All 25 portions are lyophilized followed by addition of 800 μL of PBS (50 mM, pH 7.4) to each portion to obtain a final hIAPP concentration of 40 μM.
(§2) 50 μM Thioflavin T (ThT) in PBS (50 mM, pH 7.4) was prepared. All the synthesized peptides and hIAPP (alone and in some cases mixed with breaker peptides) were dissolved in PBS (50 mM, pH 7.4) to obtain a desired stock solution (40 μM in the case of hIAPP) and incubated at 37 °C over a water bath. To perform the fluorescence study, 40 μL of sample was taken out from the stock solution and was mixed with 200 μL of ThT solution (50 μM); final volume was made up to 400 μL with PBS. For ThT fluorescence assay, emission was measured at 490 nm and excitation at 435 nm, using a slit of 3 nm on a Fluoromax-4, Horiba instrument. The text files were taken from the instrument and graphs were plotted using OriginPro 8 software. For each data point 3 different sets of replica were scanned separately and average was taken with observed standard deviation.

hIAPP1-37 = target: T2, hIAPP1-37 (Homo sapiens, UniProt P10997); test: Time dependent Thioflavin T assay, inhibition of amyloid formation of hIAPP; format: biochemical; conditions: 10-fold molar excess of peptidomimetic co-incubated with hIAPP 40 μM, PBS pH 7.4, 37 °C, up to 7 days; average of 3 replica
T2 construct: 3.1 mg of hIAPP(1-37) was dissolved in 50 μL of HFIP
T2 sequence (P10997 34-70): T1 sequence (P10997 34-70)
Procedure: To examine the inhibitory efficacy of the single breaker element (I26X) containing BSBHps (3, 4 and 5), we performed various biophysical studies in absence and presence of BSBHps and compared the effect with that of the control 2. The BSBHps and the control were co-incubated with hIAPP in PBS pH 7.4 at 37 °C up to 7 days and the kinetics of the amyloid formation was monitored using various biophysical tools. To investigate dose dependence, 2-, 5- and 10-fold molar excess of peptidomimetics were incubated with hIAPP.
as §1, §2

[2] = Stability in presence of human serum (proteolytic enzymes); format: in vitro ADME; conditions: RPMI 1640 with 10% human serum (v/v), 37 °C, 15 min pre-incubation, 10 μL of 5 mg/mL DMSO stock in 1 mL, RP-HPLC and mass spectrometry
From the text: Further, to test the stability of these peptidommetics in biological system we performed in vitro stability study in presence of human serum[37][38] which contained sufficient concentration of proteolytic enzymes. We selected BSBHPs 3 and 7, as from the results of all the experiments described above it was clear that BSBHps 3 (one breaker element containing) and 7 (two breaker elements containing) were the best among all the synthesized peptidomimetics. We compared the stability of 3 and 7 with their native peptide analogue (1) using time dependent HPLC & Mass spectrometry studies.
1 mL of the RPMI (Roswell Park Memorial Institute) 1640 media supplemented with 10% human serum (v/v) obtained from Thermo Fisher Scientific was taken in three different 2 mL eppendorf tube and incubated them at 37 °C for 15 min[38]. Then, 10 μL of the peptidomimetics (1, 3 & 7) in DMSO (5 mg/mL) were separately added to the RPMI media and incubated them at 37 °C. At different time interval 100 μL of the aliquot was taken out from the three different eppendorf tubes and added to 200 μL ethanol solution (96% aqueous ethanol) for precipitation of the serum protein. The precipitate was cooled (4 °C) for 10 min and then centrifuged at 18,000 rpm for 2 min and the pellet was discarded. The supernatant was collected and analyzed by RP-HPLC & Mass spectrometry. A linear gradient was used in the HPLC, from 5–100% CH3CN for 18 min followed by 100% CH3CN till 20 min with a flow rate of 4 mL/min using a semi-preparative C18-μ Bondapak column. Binary solvent system were used, solvent A (0.1% TFA in H2O) and solvent B (0.1% TFA in CH3CN).

[3] = Carboxyfluorescein dye leakage assay; conditions: sample 2: hIAPP incubated for 12 h; LUVs DPPC:cholesterol:GM1 68:30:2, 50 mM HEPES pH 7.4; peptide:lipid 1:20; 0 to 100 min
Procedure: The hIAPP soluble oligomers are known as more toxic than the matured amyloid, since they can damage the cell by forming pores on the cell membrane. […] To perform the vesicle leakage study, we have prepared 9 sets of different samples including untreated LUVs (without any peptide) as control for the experiment. All the peptidomimetics were added to hIAPP solution after 48 h of incubation and kept for total of 7 days (168 h = 48 h + 120 h) of incubation. After that different peptide solutions were added separately to the LUVs and leakage studies were performed. The different type of samples that were prepared is described below;
The peptide and the lipid were present in 1:20 molar ratios during leakage analysis. At the end of the experiment 10 μL of Triton X-100 was added to obtain complete dye release from the vesicle and the final fluorescence was measured. In addition to those, untreated LUVs (natural dye leakage) were studied and used as control. % dye leakage was calculated as[35],
The LUVs were prepared using three different lipids, DPPC, Cholesterol and GM1 with 68:30:2 molar ratios in 50 mM HEPES buffer of pH 7.4. Prior to the LUVs preparation, all the lipids were taken in clean glass vessel and solubilize to make 2 mM stock solution in chloroform and methanol (2:1) and the solvents were evaporated under vacuum. […]

What does the source list for `CC(C)C[C@H](NC(=O)C(C)(C)NC(=O)[C@H](C)NC(=O)CNC(=O)[C@H](Cc1ccccc1)NC(=O)[C@@H](N)CC(N)=O)C(N)=O` [Peptide 2] (H-NFGA[Aib]L-NH2)?
Disruption of preformed hIAPP amyloid (ThT assay) [1]: ~ 23%; Inhibition of hIAPP amyloid formation (suppression of ThT fluorescence intensity) (hIAPP1-37): ~ 40%

For `CC(C)C[C@H](NC(=O)c1ccccc1NC(=O)[C@H](C)NC(=O)CNC(=O)[C@H](Cc1ccccc1)NC(=O)[C@@H](N)CC(N)=O)C(N)=O` [Peptide 3] (H-NFGA[2Abz]L-NH2), which “Disruption of preformed hIAPP amyloid (ThT assay)” value (“Disruption” for short) [1] is on record?
Its value is ~ 40%.

What about the “Degradation in presence of human serum at 25 h” value [2] of the same compound?
The value was “some degradation”.

What about the “Inhibition of hIAPP amyloid formation (suppression of ThT fluorescence intensity)” value (“Inhibition of hIAPP amyloid formation” for short) (hIAPP1-37) of the same compound?
The value was ~ 55%.

For `CC(C)C[C@H](NC(=O)c1cccc(NC(=O)[C@H](C)NC(=O)CNC(=O)[C@H](Cc2ccccc2)NC(=O)[C@@H](N)CC(N)=O)c1)C(N)=O` [Peptide 4] (H-NFGA[3Abz]L-NH2), which “Disruption” value [1] is on record?
The value was ~ 33%.

What about the “Inhibition of hIAPP amyloid formation” value (hIAPP1-37) of the same compound?
Its value is ~ 50%.

Which “Enhancement of ThT fluorescence intensity of hIAPP” value (hIAPP1-37) does the source give for `CC(C)C[C@H](NC(=O)c1ccc(NC(=O)[C@H](C)NC(=O)CNC(=O)[C@H](Cc2ccccc2)NC(=O)[C@@H](N)CC(N)=O)cc1)C(N)=O` [Peptide 5] (H-NFGA[4Abz]L-NH2) here?
The value was ~ 5%.

What does the source list for `CC(C)C[C@H](NC(=O)C(C)(C)NC(=O)[C@H](C)NC(=O)C(C)(C)NC(=O)[C@H](Cc1ccccc1)NC(=O)[C@@H](N)CC(N)=O)C(N)=O` [Peptide 6] (H-NF[Aib]A[Aib]L-NH2)?
Disruption of preformed hIAPP amyloid (ThT assay) [1]: ~ 40%; Inhibition of hIAPP amyloid formation (suppression of ThT fluorescence intensity) (hIAPP1-37): ~ 52%

With `CC(C)C[C@H](NC(=O)c1ccccc1NC(=O)[C@H](C)NC(=O)c1ccccc1NC(=O)[C@H](Cc1ccccc1)NC(=O)[C@@H](N)CC(N)=O)C(N)=O` [Peptide 7] (H-NF[2Abz]A[2Abz]L-NH2) as the compound, how does the “Disruption” value [1] read?
The value was ~ 57%.

What about the “Degradation in presence of human serum at 25 h” value [2] of the same compound?
Its value is “complete retention of the peak”.

What about the “Inhibition of hIAPP amyloid formation” value (hIAPP1-37) of the same compound?
The value was ~ 70%.

Which “Disruption” value [1] does the source give for `CC(C)C[C@H](NC(=O)c1cccc(NC(=O)[C@H](C)NC(=O)c2cccc(NC(=O)[C@H](Cc3ccccc3)NC(=O)[C@@H](N)CC(N)=O)c2)c1)C(N)=O` [Peptide 8] (H-NF[3Abz]A[3Abz]L-NH2) here?
Its value is ~ 44%.

What about the “Inhibition of hIAPP amyloid formation” value (hIAPP1-37) of the same compound?
Its value is ~ 65%.

For `CC(C)C[C@H](NC(=O)c1ccc(NC(=O)[C@H](C)NC(=O)c2ccc(NC(=O)[C@H](Cc3ccccc3)NC(=O)[C@@H](N)CC(N)=O)cc2)cc1)C(N)=O` [Peptide 9] (H-NF[4Abz]A[4Abz]L-NH2), which “Enhancement of ThT fluorescence intensity of hIAPP” value (hIAPP1-37) is on record?
The value was ~ 12%.

Which “Dye leakage of LUVs treated with hIAPP” value [3] does the source give for `CC[C@H](C)[C@H](NC(=O)[C@H](C)NC(=O)CNC(=O)[C@H](Cc1ccccc1)NC(=O)[C@H](CC(N)=O)NC(=O)[C@H](CC(N)=O)NC(=O)[C@H](CO)NC(=O)[C@H](CO)NC(=O)[C@H](Cc1c[nH]cn1)NC(=O)[C@@H](NC(=O)[C@H](CC(C)C)NC(=O)[C@H](Cc1ccccc1)NC(=O)[C@H](CC(N)=O)NC(=O)[C@H](C)NC(=O)[C@H](CC(C)C)NC(=O)[C@H](CCCNC(=N)N)NC(=O)[C@H](CCC(N)=O)NC(=O)[C@@H](NC(=O)[C@H](C)NC(=O)[C@@H]1CSSC[C@H](NC(=O)[C@@H](N)CCCCN)C(=O)N[C@@H](CC(N)=O)C(=O)N[C@@H]([C@@H](C)O)C(=O)N[C@@H](C)C(=O)N[C@@H]([C@@H](C)O)C(=O)N1)[C@@H](C)O)C(C)C)C(=O)N[C@@H](CC(C)C)C(=O)N[C@@H](CO)C(=O)N[C@@H](CO)C(=O)N[C@H](C(=O)N[C@@H](CC(N)=O)C(=O)N[C@H](C(=O)NCC(=O)N[C@@H](CO)C(=O)N[C@@H](CC(N)=O)C(=O)N[C@H](C(=O)N[C@@H](Cc1ccc(O)cc1)C(N)=O)[C@@H](C)O)C(C)C)[C@@H](C)O` [hIAPP] here?
The value was “rapid increment of dye leakage”.

For “NFGAIL-NH2 [Peptide 1, reference compound]”, which “Degradation in presence of human serum after 1 h” value ([2]; after 1 h) is on record?
The value was “complete degradation”.
